One series deals with MV4; 11 leukemia cells. Briefly: XTT cytotoxicity assay on MV4;11 leukemia cells, 5 days exposure. Type of series: cell-based. To be noted: 5 days of exposure to drug, read-out: IC50, cytotoxicity against MV4;11 leukemia cells (XTT). On the procedure: (§1) Determination of cell viability using the XTT assay: In some cases, CD34+ cells are isolated from human cord blood using magnetic beads coated with anti-CD34 antibody. Isolated cells are then counted and aliquoted into 96-well plates and then incubated in the presence of varying concentrations of cantharidin or norcantharidin. Cell viability it measured by the addition of the XTT calorimetric reagent. Viability is determined by the absorbance of treated cultures at approximately 450-500 nm compared to untreated cultures. In other cases, the cells used in the assay may be a leukemia cell line, such as MV4; 11. The assay can also be used to determine the time course of cell killing by various compounds by performing the XTT assay on cultures that are incubated with the compounds for varying periods of time.
The cytotoxicity of Cantharidin and Norcantharidin against MV4; 11 leukemia cells was measured by a calorimetric assay using XTT. MV4; 11 cells were plated in 96-well plates and the following day, cells were exposed to varying doses of cantharidin and norcantharidin. After 5 days of exposure to drugs, 50 μL of 1 mg/mL XTT and 0.025 mM phenazine methosulfate (PMS) were added. The absorbance of the supernatant was measured at 450 and 630 nm of wells not treated with drug (with cells) as 100% and wells without cells as 0%.

Series [1] relates to CD34+ cells obtained from a leukemia patient (leukemic cancer stem cells). As to the kind of experiment: Cobblestone area forming cell (CAFC) assay, leukemia patient versus cord blood CD34+ cells. Type of series: cell-based, human. To be noted: 10 μM and 75 μM overnight; for sensitivity of leukemia cancer stem cells relative to normal stem cells (cord blood CD34+): CAFC, 5 weeks; for activity against leukemic cancer stem cells (cobblestone area counts vs control): cobblestone areas counted after 5 weeks on MS-5 monolayer, FIGS. 2 and 3. As to the method: (§2) Cobblestone assay: The cobblestone area-forming cell (CAFC) assay exploits a reproducible visual end point for the quantitation of cancer stem cells. Leukemia samples are added to adherent cultures of stromal cells, some embodiments MS-5 stromal cells. The cancer stem cells in the culture will migrate below the MS-5 stromal cells and form a colony of cells called a cobblestone that can be visual quantitated. To test the effect of cantharidin or norcantharidin on the cancer stem cell population using this assay, cells are first cultured in the presence of the drug. In some embodiments the cells are cultured for 16 hours. After this incubation, the cells are added to the stromal cultures. A reduction in the cobblestone area formation in cultures that were treated with the drug compared to the untreated cells represents cancer stem cell activity for the drug.
Cells were treated with 10 μM and 75 μM cantharidin or norcantharidin overnight. To assay for stem cells by the cobblestone area forming cell (CAFC) assay, CD34^+ cells subsequent to drug treatment were co-cultured with the MS-5 monolayer in X-Eagle minimum essential medium (α-MEM) containing 10% heat-inactivated FCS, 10% horse serum, 1×10^−6 M hydrocortisone, 2 mM L-glutamine, and 100 U/mL penicillin/streptomycin. After 5 weeks in culture, total cobblestone areas were counted. FIGS. 2 and 3 show bar graphs representing cobblestone area counts in the presence of no drug (control) and 10 and 75 μM of cantharidin and norcantharidin, respectively, using CD34+ cells obtained from a leukemia patient, and CD34+normal stem cells isolated from human cord blood.

Series [2] has as its system CD34+ cells from normal human cord blood. Briefly: XTT colorimetric cytotoxicity assay on cord blood CD34+ cells. Type of series: cell-based. To be noted: FIG. 1, read-out: IC50, cytotoxicity against CD34+ cells (XTT). On the procedure: as §1
(§3) CD34^+ cells were obtained from normal human cord blood by magnetic bead selection using anti-CD34 antibody coated beads. The cytotoxicity of cantharidin and norcantharidin against these cells was measured by a colorimetric assay using XTT (sodium 3′-{1-[(phenylamino)-carbonyl]-3,4-tetrazolium}-bis(4-methoxy-6-nitro) benzene-sulfonic acid hydrate). […] The absorbance of the supernatant was measured at 450 and 630 nm of wells without drug (with cells) as 100% and wells without cells as 0%. […]
(Tetrazolium dyes change colour on reduction, which living cells bring about.)

The test system of another series is MV4; 11 cells. Briefly: XTT time course of killing of MV4;11 cells. Type of series: cell-based. To be noted: at 72 hours. On the procedure:
as §1
The XTT assay was used to determine the time course of killing of MV4; 11 cells incubated with cantharidin and norcantharidin over time.
Cantharidin was dissolved in DMSO at different concentrations to ensure that final concentrations of DMSO are equivalent in all wells. To control for potential cytotoxic effects of DMSO itself, an equivalent amount of DMSO containing no drug was used as a control.
Norcantharidin was dissolved in DMSO at different concentrations to ensure that final concentrations of DMSO are equivalent in all wells. To control for potential cytotoxic effects of DMSO itself, an equivalent amount of DMSO containing no drug was used as a control.

The subject of series [3] is leukemia stem cells from bone marrow of a patient with acute myelgenous leukemia (AML). Briefly: CAFC assay of leukemia stem cells treated with cantharidin and standard chemotherapy. Type of series: cell-based, human. To be noted: 16 hours treatment, each of the concentrations tested; cobblestone areas after 5 weeks; FIG. 6. On the procedure:
as §2
Samples of primary human cord blood as well as from the bone marrow of a patient with acute myelgenous leukemia (AML) were tested. Cantharidin and norcantharidin were dissolved in DMSO, and Ara-c and daunorubicin were prepared according to the supplier's instructions. In addition, untreated controls (diluent alone) for both normal and leukemic CD34+ cells were also tested. Cells were treated with varying concentrations of drug for 16 hours. […] After 5 weeks in culture, total cobblestone areas were counted visually using a microscope.

The nature of series [4]: XTT colorimetric cytotoxicity assay on cord blood CD34+ cells. Type of series: cell-based. The settings on record: CD34+ cells from normal human cord blood; FIG. 1; read-out: IC50, cytotoxicity against CD34+ cells (XTT). As to the method:
as §1, §3

The structures appear in SMILES notation. Where two headings read alike, the source gives them in different places. Bounds are passed on as bounds.

This is an account of results in patent publication US20080267947A1, “Cancer therapy with cantharidin and cantharidin analogs” (priority 2006, published 2008).

Usually IC50 stands for the concentration that gives 50% inhibition. A word on the viability: it is a read-out of living cells in per cent, often relative to untreated cells.

On to `O=C1OC(=O)[C@H]2[C@@H]1[C@@H]1CC[C@H]2O1` [norcantharidin], for which the values for the IC50 (in the series on MV4; 11 leukemia cells; in series [2]) were 24 µM and 52 µM, respectively. Besides, in series [1], the “sensitivity of leukemia cancer stem cells relative to normal stem cells (cord blood CD34+)” value is “increased sensitivity”. The “activity against leukemic cancer stem cells (cobblestone area counts vs control)” value in series [1] is reported as “potent activity”. The “cell viability of MV4;11 cells” value with MV4; 11 cells (30 μM) and in the series on MV4; 11 cells (100 μM) was “less than 10%” throughout.
On to `C[C@@]12C(=O)OC(=O)[C@]1(C)[C@H]1CC[C@@H]2O1` [cantharidin], for which the “sensitivity of leukemia stem cells compared with cytarabine or daunorubicin (CAFC)” value in series [3] is recorded as “more sensitive”. In the series on MV4; 11 leukemia cells (Homo sapiens, MV4-11, 120 h), the IC50 came out at 7.5 µM. Besides, in series [1], the “sensitivity of leukemia cancer stem cells relative to normal stem cells (cord blood CD34+)” value was “increased sensitivity” and the “activity against leukemic cancer stem cells (cobblestone area counts vs control)” value is listed as “potent activity”. Further, the 50% inhibitory concentration (IC50) in series [4] stood at 6.5 µM. Besides, the viability at 30 µM with MV4; 11 cells (Homo sapiens, MV4-11, 30 μM, read-out: cell viability of MV4;11 cells) is under 10%. Besides, the viability at 100 µM in the series on MV4; 11 cells (Homo sapiens, MV4-11, 100 μM, read-out: cell viability of MV4;11 cells) was under 10%.
